{"source": "patent US10441593B2", "about": "“Treatment of pain associated with dislocation of endometrium” (PREGLEM S.A., priority 2010, dated 2019)", "test_system": "patients with heavy menstrual bleeding and pain who had adenomyosis", "experiment": "Clinical study: 13 weeks oral 5 mg or 10 mg ulipristal in patients with adenomyosis (Example 1)", "format": "in vivo, human", "experimental": "A double-blinded, randomized, placebo-controlled study evaluating the effect of long term (13 weeks) oral administration of 5 mg or 10 mg ulipristal in patients with heavy menstrual bleeding and pain included 5 patients who had adenomyosis.\nThese patients included women 36 years of age or older diagnosed by MRI with adenomyosis but no evidence of uterine fibroid.\nThe patients were randomized as follows: 1 patient received a daily placebo treatment (matching Esmya tablet appearance) and iron 80 mg/day, 2 patients received a daily dose of 5 mg ulipristal (Esmya®) and iron 80 mg/day and 2 patients received a daily dose of 10 mg ulipristal (Esmya®) and iron 80 mg/day for 13 weeks.\nDifferent parameters were assessed before treatment (Baseline) and after the end of treatment (13 weeks): • The PBAC score (Pictorial Blood Loss Assessment Chart) gives an estimation of the menstrual blood loss. This score was measured before treatment and continuing up to week 13 of treatment. Normal menstrual bleeding score is <75. Abnormal bleeding (menorrhagia) is characterized by a PBAC score >100. Higher the score, worse is the bleeding. • The Uterine volume was estimated before treatment (Baseline Uterine volume) and the % change in uterine volume was reported at the end of the treatment (week 13). • The SF-M P QPart A (short form of the Mc Gill Pain questionnaire) was used as a measure of the sensory, affective and intensity dimensions of pain. The pain was estimated before treatment and the change was reported at the end of the treatment (week 13). (NOTE: The lowest is the score, the better it is). • The SF-MPQ Part B (short form of the Mc Gill Pain questionnaire) wherein the pain is assessed with a visual analogue scale (VAS) before treatment and the change was reported at the end of the treatment (week 13). (NOTE: The lowest is the score, the better it is). • Discomfort questionnaire (disease specific quality of life questionnaire) estimating the quality of life before treatment and the change was reported at the end of the treatment (week 13). (NOTE: The lowest is the score, the better it is). • The level of Hb (Hemoglobin) was measured before treatment and at the end of the treatment. (NOTE: the higher it is, the better it is.) 3. Results", "key": {"[1]": {"details": "5 mg/day + iron 80 mg/day, 13 weeks, patient 130/1368, adenomyosis"}, "[2]": {"details": "5 mg/day + iron 80 mg/day, 13 weeks, patient 142/1036, adenomyosis"}, "[3]": {"details": "10 mg/day + iron 80 mg/day, 13 weeks, patient 148/1427, adenomyosis"}, "[4]": {"details": "10 mg/day + iron 80 mg/day, 13 weeks, patient 154/1240, adenomyosis"}, "[5]": {"details": "daily dose of 5 mg or 10 mg, examples 1 and 2"}}, "note": "“And” between values parts separate entries of the source, which are not always exact repeats. Equal entries are not always repeated.", "data": [{"smiles": "CC(=O)O[C@]1(C(C)=O)CC[C@H]2[C@@H]3CCC4=CC(=O)CCC4=C3[C@@H](c3ccc(N(C)C)cc3)C[C@@]21C", "note": "[Ulipristal, 17α-acetoxy-11β-[4-N,N-dimethylamino-phenyl)-19-norpregna-4,9-diene-3,20-dione]", "values": [{"measurement": "% change in uterine volume at week 13", "setting": "[1]", "value": "−21.5", "unit": "%"}, {"measurement": "Change in PBAC", "setting": "[1]", "value": "−232"}, {"measurement": "Discomfort questionnaire Change at Week 13", "setting": "[1]", "value": "−5"}, {"measurement": "Hb at Week 13", "setting": "[1]", "value": 13.5, "unit": "g/dL"}, {"measurement": "PBAC at week 13", "setting": "[1]", "value": 0}, {"measurement": "SF-MPQ Part A Change at Week 13", "setting": "[1]", "value": "−5"}, {"measurement": "SF-MPQ Part B (VAS) Change at Week 13", "setting": "[1]", "value": "−7"}, {"measurement": "% change in uterine volume at week 13", "setting": "[2]", "value": "+0.4%"}, {"measurement": "Change in PBAC", "setting": "[2]", "value": "−994"}, {"measurement": "Discomfort questionnaire Change at Week 13", "setting": "[2]", "value": "−9"}, {"measurement": "Hb at Week 13", "setting": "[2]", "value": 14, "unit": "g/dL"}, {"measurement": "PBAC at week 13", "setting": "[2]", "value": 0}, {"measurement": "SF-MPQ Part A Change at Week 13", "setting": "[2]", "value": 0}, {"measurement": "SF-MPQ Part B (VAS) Change at Week 13", "setting": "[2]", "value": "−6"}, {"measurement": "pain at 10 mg, both patients", "setting": "10 mg, both patients, adenomyosis", "value": "Very substantial improvement in pain"}, {"measurement": "pain at 10 mg, one of the patients", "setting": "10 mg, one of the two patients, adenomyosis", "value": "complete absence of pain"}, {"measurement": "% change in uterine volume at week 13", "setting": "[3]", "value": 36.4, "unit": "%"}, {"measurement": "Change in PBAC", "setting": "[3]", "value": "−624"}, {"measurement": "Discomfort questionnaire Change at Week 13", "setting": "[3]", "value": "−20"}, {"measurement": "Hb at Week 13", "setting": "[3]", "value": 13.6, "unit": "g/dL"}, {"measurement": "PBAC at week 13", "setting": "[3]", "value": 0}, {"measurement": "SF-MPQ Part A Change at Week 13", "setting": "[3]", "value": "−2"}, {"measurement": "SF-MPQ Part B (VAS) Change at Week 13", "setting": "[3]", "value": "−43"}, {"measurement": "% change in uterine volume at week 13", "setting": "[4]", "value": "−32.0", "unit": "%"}, {"measurement": "Change in PBAC", "setting": "[4]", "value": "−536"}, {"measurement": "Discomfort questionnaire Change at Week 13", "setting": "[4]", "value": "−12"}, {"measurement": "Hb at Week 13", "setting": "[4]", "value": 12.1, "unit": "g/dL"}, {"measurement": "PBAC at week 13", "setting": "[4]", "value": 0}, {"measurement": "SF-MPQ Part A Change at Week 13", "setting": "[4]", "value": "−14"}, {"measurement": "SF-MPQ Part B (VAS) Change at Week 13", "setting": "[4]", "value": "−93"}, {"measurement": "PBAC score at the end of treatment (week 13)", "setting": "all 4 patients treated with 5 mg or 10 mg, adenomyosis", "value": 0}, {"measurement": "pain as measured with the SF-MPQ Part B (VAS) compared to the placebo treated patient", "setting": "all four patients, 5 mg or 10 mg, 13 weeks, adenomyosis", "value": "improvements in pain"}, {"measurement": "quality of life compared to the placebo treated patient", "setting": "all four patients, 5 mg or 10 mg, adenomyosis", "value": "substantial improvement in the quality of life"}, {"measurement": "Hb at the end of the treatment", "setting": "all four patients, 5 mg or 10 mg, concomitant iron 80 mg once daily", "value": "increase in Hb"}, {"measurement": "PBAC score at the end of the treatment", "setting": "[5]", "value": "amenorrhea"}, {"measurement": "uterine volume at the end of treatment", "setting": "[5]", "value": "decrease in uterine volume"}, {"measurement": "levels of Hb during the treatment", "setting": "daily dose of 5 mg or 10 mg, with or without concomitant iron", "value": "increased"}, {"measurement": "% change in uterine volume at week 13", "setting": "individual ulipristal treated patients (5 mg or 10 mg), adenomyosis", "value": "+36.4% and +0.4% and −21.5% and −32%"}, {"measurement": "pain relief, 10 mg compared to 5 mg", "setting": "patients treated at 10 mg vs patients that received 5 mg, adenomyosis", "value": "better pain relief"}]}]}
